Among the targets are LIM domain kinase 2 (Homo sapiens, UniProt P53671); Myosin-14 (Homo sapiens, UniProt Q7Z406); Activated CDC42 kinase 1 (Homo sapiens, UniProt Q07912).
The target in assay [1] is Bone morphogenetic protein receptor type-1A (Homo sapiens, UniProt P36894).
For assay [2], the target named is Cyclin-dependent kinase 13 (Homo sapiens, UniProt Q14004).
Assay [3] deals with Chromodomain-helicase-DNA-binding protein 4 (Homo sapiens, UniProt Q14839).
The target in assay [4] is Casein kinase I isoform alpha (Homo sapiens, UniProt P48729).
Chain of Casein kinase I isoform alpha (P48729 whole entry, canonical isoform): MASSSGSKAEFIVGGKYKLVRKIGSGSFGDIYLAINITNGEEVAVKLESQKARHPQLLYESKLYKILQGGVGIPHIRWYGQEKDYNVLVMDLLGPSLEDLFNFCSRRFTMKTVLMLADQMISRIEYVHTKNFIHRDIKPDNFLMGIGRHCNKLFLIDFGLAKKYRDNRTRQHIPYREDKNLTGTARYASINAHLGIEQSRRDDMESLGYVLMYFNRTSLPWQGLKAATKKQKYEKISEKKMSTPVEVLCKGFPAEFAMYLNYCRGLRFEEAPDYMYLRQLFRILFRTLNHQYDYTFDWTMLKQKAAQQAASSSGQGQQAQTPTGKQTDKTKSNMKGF
In another assay the target is T1, Scaffold protein ILK (Homo sapiens, UniProt Q13418).
T1 sequence (Q13418 whole entry): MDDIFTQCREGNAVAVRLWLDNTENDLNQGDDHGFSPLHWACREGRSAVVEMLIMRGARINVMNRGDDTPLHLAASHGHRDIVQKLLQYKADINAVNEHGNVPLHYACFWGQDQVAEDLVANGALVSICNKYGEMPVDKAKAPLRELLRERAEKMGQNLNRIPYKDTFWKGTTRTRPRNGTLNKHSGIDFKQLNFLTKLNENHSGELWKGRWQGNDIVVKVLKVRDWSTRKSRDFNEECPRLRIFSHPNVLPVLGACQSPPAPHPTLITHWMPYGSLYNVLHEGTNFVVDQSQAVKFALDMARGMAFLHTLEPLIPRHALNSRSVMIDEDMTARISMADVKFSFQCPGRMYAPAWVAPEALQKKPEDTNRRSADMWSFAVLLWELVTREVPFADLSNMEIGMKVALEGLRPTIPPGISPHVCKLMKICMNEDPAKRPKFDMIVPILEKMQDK

The target of assay [5] is T2, Mitogen-activated protein kinase kinase kinase 2 (Homo sapiens, UniProt Q9Y2U5).
T2 sequence (Q9Y2U5 whole entry): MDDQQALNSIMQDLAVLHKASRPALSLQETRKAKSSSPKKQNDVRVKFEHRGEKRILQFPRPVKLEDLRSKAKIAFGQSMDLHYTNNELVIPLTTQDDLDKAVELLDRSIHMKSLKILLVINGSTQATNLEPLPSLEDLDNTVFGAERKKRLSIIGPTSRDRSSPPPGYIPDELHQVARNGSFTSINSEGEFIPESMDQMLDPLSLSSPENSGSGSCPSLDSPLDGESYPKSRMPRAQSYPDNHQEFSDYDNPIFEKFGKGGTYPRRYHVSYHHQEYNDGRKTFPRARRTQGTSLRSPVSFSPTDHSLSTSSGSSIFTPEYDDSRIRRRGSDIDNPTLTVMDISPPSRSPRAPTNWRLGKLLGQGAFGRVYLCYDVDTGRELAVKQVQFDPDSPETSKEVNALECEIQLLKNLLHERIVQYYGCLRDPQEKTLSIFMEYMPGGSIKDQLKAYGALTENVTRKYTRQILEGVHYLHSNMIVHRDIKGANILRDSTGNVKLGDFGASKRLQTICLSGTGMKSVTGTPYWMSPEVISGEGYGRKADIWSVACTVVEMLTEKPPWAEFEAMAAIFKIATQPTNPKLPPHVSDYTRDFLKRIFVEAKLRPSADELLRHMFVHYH

The target in assay [6] is T3, Mitogen-activated protein kinase kinase kinase 5 (Homo sapiens, UniProt Q99683).
T3 sequence (Q99683 whole entry): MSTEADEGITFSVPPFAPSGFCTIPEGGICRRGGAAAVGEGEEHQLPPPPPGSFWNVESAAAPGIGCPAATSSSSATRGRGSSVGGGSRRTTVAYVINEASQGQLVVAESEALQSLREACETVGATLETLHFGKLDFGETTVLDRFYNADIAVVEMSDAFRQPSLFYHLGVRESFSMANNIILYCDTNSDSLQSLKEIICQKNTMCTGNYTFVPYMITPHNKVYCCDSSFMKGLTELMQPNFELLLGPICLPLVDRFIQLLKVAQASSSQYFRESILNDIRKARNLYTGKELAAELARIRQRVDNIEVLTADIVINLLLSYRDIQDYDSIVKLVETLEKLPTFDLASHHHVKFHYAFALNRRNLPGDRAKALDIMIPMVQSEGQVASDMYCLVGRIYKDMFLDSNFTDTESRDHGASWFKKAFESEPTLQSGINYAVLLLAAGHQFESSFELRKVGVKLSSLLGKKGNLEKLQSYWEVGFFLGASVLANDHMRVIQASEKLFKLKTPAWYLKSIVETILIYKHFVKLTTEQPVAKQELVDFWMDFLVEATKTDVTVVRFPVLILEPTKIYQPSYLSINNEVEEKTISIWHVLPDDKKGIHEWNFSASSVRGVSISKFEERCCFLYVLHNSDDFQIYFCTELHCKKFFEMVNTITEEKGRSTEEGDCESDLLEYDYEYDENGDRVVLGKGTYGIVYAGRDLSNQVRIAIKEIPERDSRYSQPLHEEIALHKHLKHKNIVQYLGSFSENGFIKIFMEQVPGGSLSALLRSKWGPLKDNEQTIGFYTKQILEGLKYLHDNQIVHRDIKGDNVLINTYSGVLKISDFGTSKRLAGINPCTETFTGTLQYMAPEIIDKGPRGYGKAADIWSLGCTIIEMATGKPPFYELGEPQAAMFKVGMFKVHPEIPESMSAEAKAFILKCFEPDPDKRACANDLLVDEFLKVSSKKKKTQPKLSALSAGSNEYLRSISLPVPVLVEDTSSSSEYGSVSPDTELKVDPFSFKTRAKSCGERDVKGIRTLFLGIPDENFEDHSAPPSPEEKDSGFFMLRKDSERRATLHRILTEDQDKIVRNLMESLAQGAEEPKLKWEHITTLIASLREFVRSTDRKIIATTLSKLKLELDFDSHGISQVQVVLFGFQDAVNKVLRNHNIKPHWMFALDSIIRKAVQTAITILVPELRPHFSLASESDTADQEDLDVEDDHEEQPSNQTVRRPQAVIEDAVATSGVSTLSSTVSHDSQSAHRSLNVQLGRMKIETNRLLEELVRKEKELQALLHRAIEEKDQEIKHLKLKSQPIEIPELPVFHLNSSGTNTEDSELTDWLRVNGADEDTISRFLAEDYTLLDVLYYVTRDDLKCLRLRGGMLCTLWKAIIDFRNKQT

In assay [7] the target is Mitogen-activated protein kinase 11 (Homo sapiens, UniProt Q15759).
Chain of Mitogen-activated protein kinase 11 (Q15759 whole entry): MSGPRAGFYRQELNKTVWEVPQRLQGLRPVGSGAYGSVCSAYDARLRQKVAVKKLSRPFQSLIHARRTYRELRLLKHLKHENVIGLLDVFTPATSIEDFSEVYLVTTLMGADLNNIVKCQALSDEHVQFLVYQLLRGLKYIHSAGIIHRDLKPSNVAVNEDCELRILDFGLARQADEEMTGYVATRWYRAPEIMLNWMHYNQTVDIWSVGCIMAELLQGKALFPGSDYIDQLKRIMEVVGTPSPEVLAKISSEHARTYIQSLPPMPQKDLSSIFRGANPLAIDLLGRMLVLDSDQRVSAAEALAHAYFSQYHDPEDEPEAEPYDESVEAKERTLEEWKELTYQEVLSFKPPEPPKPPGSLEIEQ
The target of assay [8] is Maternal embryonic leucine zipper kinase (Homo sapiens, UniProt Q14680).
Chain of Maternal embryonic leucine zipper kinase (Q14680 whole entry): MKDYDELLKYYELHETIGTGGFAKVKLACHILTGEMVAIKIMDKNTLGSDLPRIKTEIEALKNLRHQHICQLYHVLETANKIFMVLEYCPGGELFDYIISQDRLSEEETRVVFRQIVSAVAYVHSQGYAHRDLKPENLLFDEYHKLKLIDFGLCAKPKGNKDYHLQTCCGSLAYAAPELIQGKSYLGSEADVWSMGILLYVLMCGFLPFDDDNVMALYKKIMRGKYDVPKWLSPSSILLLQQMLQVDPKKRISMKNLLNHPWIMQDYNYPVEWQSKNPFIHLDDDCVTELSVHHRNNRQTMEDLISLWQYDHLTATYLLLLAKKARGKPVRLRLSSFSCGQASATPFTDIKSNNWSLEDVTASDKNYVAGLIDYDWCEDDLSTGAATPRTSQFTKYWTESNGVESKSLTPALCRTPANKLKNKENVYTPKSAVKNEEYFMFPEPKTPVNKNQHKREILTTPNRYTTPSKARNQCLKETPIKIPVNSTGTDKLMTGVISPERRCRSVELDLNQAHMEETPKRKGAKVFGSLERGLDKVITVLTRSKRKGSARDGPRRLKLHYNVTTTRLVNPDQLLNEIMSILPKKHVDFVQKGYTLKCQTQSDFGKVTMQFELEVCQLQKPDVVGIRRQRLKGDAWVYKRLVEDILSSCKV
For assay [9], the target named is Proto-oncogene tyrosine-protein kinase Src (Homo sapiens, UniProt P12931).

Molecules are shown by their SMILES. Calls of active or inactive are those of the source. Cut-off read from the data, not from the text of the source, for most assays here: actives have a measured Kd and inactives only a lower limit.

As usually defined, the Kd is the free concentration of one partner at which half of the binding sites on the other are occupied at equilibrium, for simple one-to-one binding.
Note: in the data inactive means no Kd found up to 30 µM.

Chain of Activated CDC42 kinase 1 (Q07912 whole entry): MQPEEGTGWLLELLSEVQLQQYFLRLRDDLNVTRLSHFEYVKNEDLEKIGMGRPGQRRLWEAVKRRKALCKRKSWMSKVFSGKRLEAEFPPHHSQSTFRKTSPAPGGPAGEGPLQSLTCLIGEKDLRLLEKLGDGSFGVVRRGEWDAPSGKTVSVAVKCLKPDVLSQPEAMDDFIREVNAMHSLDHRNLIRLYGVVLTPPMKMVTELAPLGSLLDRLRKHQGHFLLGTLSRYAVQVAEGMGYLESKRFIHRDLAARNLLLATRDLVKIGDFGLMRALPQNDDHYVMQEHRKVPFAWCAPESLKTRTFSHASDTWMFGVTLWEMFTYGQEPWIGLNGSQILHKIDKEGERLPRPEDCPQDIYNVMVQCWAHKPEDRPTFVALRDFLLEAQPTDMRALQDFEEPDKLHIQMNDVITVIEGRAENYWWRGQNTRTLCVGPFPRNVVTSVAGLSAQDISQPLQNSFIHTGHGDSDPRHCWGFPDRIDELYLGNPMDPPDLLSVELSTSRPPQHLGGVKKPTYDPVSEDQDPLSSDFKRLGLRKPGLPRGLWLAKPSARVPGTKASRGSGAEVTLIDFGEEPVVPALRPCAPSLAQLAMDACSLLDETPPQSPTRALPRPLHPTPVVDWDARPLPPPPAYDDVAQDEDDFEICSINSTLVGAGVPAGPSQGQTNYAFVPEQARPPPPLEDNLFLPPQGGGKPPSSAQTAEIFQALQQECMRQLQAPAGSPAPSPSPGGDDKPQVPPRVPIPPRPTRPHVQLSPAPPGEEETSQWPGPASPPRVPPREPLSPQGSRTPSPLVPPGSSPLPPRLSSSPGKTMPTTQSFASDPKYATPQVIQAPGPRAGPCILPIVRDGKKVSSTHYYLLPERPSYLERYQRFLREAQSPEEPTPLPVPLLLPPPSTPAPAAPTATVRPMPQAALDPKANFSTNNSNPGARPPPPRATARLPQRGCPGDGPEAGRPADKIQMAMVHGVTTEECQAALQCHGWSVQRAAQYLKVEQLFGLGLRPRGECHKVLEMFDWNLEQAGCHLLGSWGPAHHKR
Chain of Chromodomain-helicase-DNA-binding protein 4 (Q14839 whole entry, canonical isoform): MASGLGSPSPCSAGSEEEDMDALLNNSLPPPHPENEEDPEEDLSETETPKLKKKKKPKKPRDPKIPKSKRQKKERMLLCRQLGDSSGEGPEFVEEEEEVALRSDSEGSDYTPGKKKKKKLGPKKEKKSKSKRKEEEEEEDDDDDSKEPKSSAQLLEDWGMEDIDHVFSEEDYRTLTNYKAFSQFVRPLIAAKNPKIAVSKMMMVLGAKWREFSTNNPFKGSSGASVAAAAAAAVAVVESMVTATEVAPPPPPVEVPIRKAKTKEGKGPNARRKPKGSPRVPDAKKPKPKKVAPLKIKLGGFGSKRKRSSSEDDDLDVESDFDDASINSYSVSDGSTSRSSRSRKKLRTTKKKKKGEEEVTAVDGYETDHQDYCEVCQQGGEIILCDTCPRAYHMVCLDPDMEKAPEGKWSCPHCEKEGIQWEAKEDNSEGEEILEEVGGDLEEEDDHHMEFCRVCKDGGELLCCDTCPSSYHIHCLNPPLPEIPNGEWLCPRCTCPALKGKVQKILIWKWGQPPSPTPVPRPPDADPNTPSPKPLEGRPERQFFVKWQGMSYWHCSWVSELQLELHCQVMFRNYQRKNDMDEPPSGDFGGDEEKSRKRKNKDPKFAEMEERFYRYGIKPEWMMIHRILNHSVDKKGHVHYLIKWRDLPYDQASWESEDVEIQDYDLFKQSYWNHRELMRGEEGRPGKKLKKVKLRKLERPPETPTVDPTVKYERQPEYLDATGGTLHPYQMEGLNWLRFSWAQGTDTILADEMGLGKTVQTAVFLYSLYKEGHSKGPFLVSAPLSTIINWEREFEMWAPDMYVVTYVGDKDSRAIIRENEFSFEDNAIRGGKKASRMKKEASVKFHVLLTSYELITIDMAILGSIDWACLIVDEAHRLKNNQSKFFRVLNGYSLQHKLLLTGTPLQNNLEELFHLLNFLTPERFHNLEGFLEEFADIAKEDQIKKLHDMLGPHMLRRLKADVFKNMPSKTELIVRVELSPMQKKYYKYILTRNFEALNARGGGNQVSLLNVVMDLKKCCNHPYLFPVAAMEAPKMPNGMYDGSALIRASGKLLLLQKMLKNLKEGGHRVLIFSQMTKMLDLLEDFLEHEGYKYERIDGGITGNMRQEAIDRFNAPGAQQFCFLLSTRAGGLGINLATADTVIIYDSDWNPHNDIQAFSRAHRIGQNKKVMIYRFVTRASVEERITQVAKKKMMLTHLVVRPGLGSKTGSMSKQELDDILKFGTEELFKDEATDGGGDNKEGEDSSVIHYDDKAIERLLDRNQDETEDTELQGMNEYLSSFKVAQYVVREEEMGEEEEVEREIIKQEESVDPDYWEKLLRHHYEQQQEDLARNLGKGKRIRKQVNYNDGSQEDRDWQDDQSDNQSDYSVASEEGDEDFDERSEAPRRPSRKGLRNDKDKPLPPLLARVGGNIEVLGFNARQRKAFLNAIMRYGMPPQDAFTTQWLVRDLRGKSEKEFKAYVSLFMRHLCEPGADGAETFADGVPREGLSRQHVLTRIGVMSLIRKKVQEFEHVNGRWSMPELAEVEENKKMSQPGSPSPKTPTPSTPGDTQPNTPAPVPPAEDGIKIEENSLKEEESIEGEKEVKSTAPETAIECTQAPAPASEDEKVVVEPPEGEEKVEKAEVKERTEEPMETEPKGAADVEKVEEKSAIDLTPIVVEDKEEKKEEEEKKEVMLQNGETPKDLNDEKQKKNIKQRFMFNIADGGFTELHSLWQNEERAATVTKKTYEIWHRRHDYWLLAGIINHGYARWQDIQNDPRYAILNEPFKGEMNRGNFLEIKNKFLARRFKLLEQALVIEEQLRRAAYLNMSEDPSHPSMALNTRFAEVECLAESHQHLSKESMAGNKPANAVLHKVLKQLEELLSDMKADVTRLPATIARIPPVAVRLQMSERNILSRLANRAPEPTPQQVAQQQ
Chain of LIM domain kinase 2 (P53671 whole entry, the tested form may be a part): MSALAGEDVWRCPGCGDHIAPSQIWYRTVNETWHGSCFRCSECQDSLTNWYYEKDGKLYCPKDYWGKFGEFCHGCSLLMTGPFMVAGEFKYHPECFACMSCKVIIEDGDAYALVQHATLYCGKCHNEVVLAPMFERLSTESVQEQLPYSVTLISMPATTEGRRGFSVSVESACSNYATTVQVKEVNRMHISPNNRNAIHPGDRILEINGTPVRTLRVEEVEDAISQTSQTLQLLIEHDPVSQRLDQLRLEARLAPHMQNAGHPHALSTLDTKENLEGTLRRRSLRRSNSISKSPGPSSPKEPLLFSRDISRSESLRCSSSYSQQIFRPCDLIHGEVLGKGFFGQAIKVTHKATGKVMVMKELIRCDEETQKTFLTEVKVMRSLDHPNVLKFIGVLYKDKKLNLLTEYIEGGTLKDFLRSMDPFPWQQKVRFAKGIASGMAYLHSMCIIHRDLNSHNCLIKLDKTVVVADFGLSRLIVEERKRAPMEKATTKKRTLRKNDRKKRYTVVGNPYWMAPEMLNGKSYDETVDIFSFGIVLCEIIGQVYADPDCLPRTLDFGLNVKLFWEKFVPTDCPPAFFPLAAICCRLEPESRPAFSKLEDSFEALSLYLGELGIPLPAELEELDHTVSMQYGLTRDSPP

On to `Cc1ccc(C(=O)Nc2ccc(Oc3cc4cnn(C)c4cc3-c3cn[nH]c3)c(F)c2)c(=O)n1-c1ccc(F)cc1` [MERESTINIB], for which the Kd (in assay [1]; in assay [2]; in assay [3]; in assay [4]; at Scaffold protein ILK; on LIM domain kinase 2) was > 30 µM (inactive) in each case. Also, the Kd (in assay [5]; in assay [6]; in assay [7]; in assay [8]; at Myosin-14; in assay [9]) was > 30 µM (inactive) throughout. Moreover, the Kd at Activated CDC42 kinase 1 is > 30 µM (inactive).
`CNC(=O)c1cccc(-c2ccc3c(N4CCOC[C@@H]4C)nc(N4CCOC[C@@H]4C)nc3n2)c1` [VISTUSERTIB]: the Kd (in assay [1]; in assay [2]; in assay [3]; in assay [4]; on Scaffold protein ILK; on LIM domain kinase 2) was > 30 µM (inactive) in each case. The Kd (in assay [5]; in assay [6]; in assay [7]; in assay [8]; at Myosin-14; in assay [9]) was > 30 µM (inactive) in each case. For the same compound, on Activated CDC42 kinase 1, the Kd was > 30 µM (inactive).
With `O=C(NC[C@H](O)CO)c1ccncc1Nc1ccc(I)cc1F` [PIMASERTIB], the Kd (in [1]; in assay [2]; in [3]; in assay [4]; at Scaffold protein ILK; at LIM domain kinase 2) was > 30 µM (inactive) in each case. In addition, the Kd (in [5]; in [6]; in assay [7]; in [8]; at Myosin-14; in assay [9]) was > 30 µM (inactive) throughout. Further, the Kd on Activated CDC42 kinase 1 is > 30 µM (inactive).
In the case of `O=C(NOC[C@H](O)CO)c1ccc(F)c(F)c1Nc1ccc(I)cc1F` [MIRDAMETINIB], the Kd (in [1]; in assay [2]; in assay [3]; in assay [4]; on Scaffold protein ILK; at LIM domain kinase 2) was > 30 µM (inactive) each time. Besides, the Kd (in assay [5]; in assay [6]; in [7]; in assay [8]; on Myosin-14; in assay [9]) was > 30 µM (inactive) each time. For the same compound, the Kd on Activated CDC42 kinase 1 was > 30 µM (inactive).
Turning to `COc1ccc2c(OCc3nnc4ccc(-c5ccccc5)nn34)ccnc2c1` [AMG-208], the Kd (in assay [1]; in [2]; in assay [3]; in [4]; on Scaffold protein ILK; on LIM domain kinase 2) was > 30 µM (inactive) in each case. The Kd (in assay [5]; in assay [6]; in assay [7]; in assay [8]; at Myosin-14; in assay [9]) was > 30 µM (inactive) each time. Further, the Kd on Activated CDC42 kinase 1 was > 30 µM (inactive).
Turning to `COc1ccc(-c2ccc3ncc4c(c3c2)n(-c2ccc(N3CCNCC3)c(C(F)(F)F)c2)c(=O)n4C)cn1` [BGT-226 FREE BASE], the Kd (in assay [1]; in assay [2]; in assay [3]; in [4]; on Scaffold protein ILK; at LIM domain kinase 2) was > 30 µM (inactive) in each case. The Kd in assay [5] was > 30 µM (inactive); in [6], > 30 µM (inactive); in [7], > 30 µM (inactive); in assay [8], 4.08 µM (active); at Myosin-14, > 30 µM (inactive); in [9] it was > 30 µM (inactive). Further, on Activated CDC42 kinase 1, the Kd is > 30 µM (inactive).

(Values after ChEMBL document CHEMBL3991601, “The target landscape of clinical kinase drugs” (Science, 2017).)
